From ChEMBL document CHEMBL1138928, “Toward orthopoxvirus countermeasures: a novel heteromorphic nucleoside of unusual structure” (J Med Chem, 2006)

Test system: Vaccinia virus
Experiment: Antiviral activity against vaccinia virus in HFF cells by cytopathogenic effect assay
Assay type: functional, organism-based
Conditions: Orthopoxvirus vaccinia

Row | SMILES | EC50
1 | Nc1ccn(C[C@@H](CO)OCP(=O)(O)O)c(=O)n1 [CIDOFOVIR] | 3200 nM
2 | N#CC1=C(N)OC2=C(C(=O)CCC2)C1c1cn([C@H]2C[C@@H](O)[C@@H](CO)O2)c(=O)[nH]c1=O (some centres not stated) | 600 nM
